Assay results taken from US20100216777A1, “AMINOPYRAZINE ANALOGS FOR TREATING GLAUCOMA AND OTHER RHO KINASE-MEDIATED DISEASES AND CONDITIONS” (ALCON, INC., priority 2004, published 2010).
Structures can show the parent of a compound that is named as a salt.

Molecular target: T1, Human Recombinant ROCK-II Enzyme (ROKα/ROCK-II, aa 11-552) (Homo sapiens, UniProt O75116)
T1 construct: (ROKα/ROCK-II, (aa 11-552), human active); purchased Upstate Biotechnology Co., Lake Placid, N.Y. 14-451
Experiment: ROCK-II inhibition, fluorescence polarization assay (IMAP ROCK II kit)
Assay type: biochemical
Conditions: substrate 200 nM, ATP 10 μM, 60 min at 23° C., read-out: Enzyme Inhibition Constants (IC50) against Human Recombinant ROCK-II Enzyme
Method: The ability of certain compounds of Formula (I) to inhibit rho kinase was evaluated by means of in vitro assays. Human recombinant Rho kinase (ROKα/ROCK-II, (aa 11-552), human active, catalog #14-451, Upstate Biotechnology Co., Lake Placid, N.Y.), MgCl2/ATP cocktail, and enzyme substrate (Upstate) are used.
The fluorescence polarization assays are performed using a Biomek 2000 Robotic Workstation (Beckman Instruments, Palo Alto, Calif.) in a 96-well plate format. The assays are performed utilizing the IMAP ROCK II kit (Molecular Devices, Sunnyvale, Calif.) as follows. Substrate and ATP concentrations used are 200 nM and 10 μM, respectively, while the enzyme concentration is 3.96×10^−3 units per well. The substrate, enzyme, and ATP dilutions are made with the reaction buffer provided by the vendor. Test compounds are diluted in 10:10 DMSO-ethanol (vol/vol). For the actual assays, the various components are added into black, clear bottom, 96-well plates (Costar, Corning, N.Y.) in a final volume of 20 μl per well. After the enzyme reaction (60 min at 23° C.), 60 μl of the binding solution (IMAP kit, provided by vendor) is added per well and incubated for an additional 30 minutes in the dark at 23° C. Fluorescence polarization of the reaction mixtures is then measured on the Analyst™ HT instrument (Molecular Devices, Sunnyvale, Calif.).
The data generated are then analyzed using a non-linear, iterative, sigmoidal-fit computer program purchased from IDBS (Emeryville, Calif.) and as previously described (Sharif et al., J. Pharmacol. Exp. Ther. 286:1094-1102, 1998; Sharif et al., J. Pharmacol. Expt. Ther. 293:321-328, 2000; Sharif et al., J. Ocular Pharmacol. Ther. 18:141-162, 2002a; Sharif et al., J. Pharmac. Pharmacol. 54:539-547, 2002b) to generate the inhibition constants for the test compounds.

T1 sequence (O75116 11-552): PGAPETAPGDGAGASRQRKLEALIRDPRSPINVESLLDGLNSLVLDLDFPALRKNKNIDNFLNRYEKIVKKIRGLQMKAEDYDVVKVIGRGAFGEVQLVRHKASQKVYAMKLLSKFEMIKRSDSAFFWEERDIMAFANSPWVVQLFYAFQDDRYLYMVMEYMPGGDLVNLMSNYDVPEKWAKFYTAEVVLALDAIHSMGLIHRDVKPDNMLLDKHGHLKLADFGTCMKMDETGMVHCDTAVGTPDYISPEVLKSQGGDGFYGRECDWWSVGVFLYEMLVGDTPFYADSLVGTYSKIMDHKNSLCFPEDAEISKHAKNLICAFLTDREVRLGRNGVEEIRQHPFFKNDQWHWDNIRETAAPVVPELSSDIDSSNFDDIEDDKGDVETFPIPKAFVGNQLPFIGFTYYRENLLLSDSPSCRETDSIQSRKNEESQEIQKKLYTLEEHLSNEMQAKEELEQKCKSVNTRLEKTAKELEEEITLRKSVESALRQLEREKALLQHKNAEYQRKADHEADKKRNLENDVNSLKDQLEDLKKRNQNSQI

Row | IC50 [nM] | SMILES
1 | 6.7 | CCN(CC)c1ncc(-c2ccncc2)nc1N1CCCN(C)CC1 [Example 37, N,N-Diethyl-3-(4-methyl-1,4-diazepan-1-yl)-5-(pyridin-4-yl)pyrazin-2-amine hydrochloride]
2 | 0.33 | CN1CCCN(c2nc(-c3ccncc3)cnc2N2CCCC2)CC1 [Example 38, 1-Methyl-4-(6-(pyridin-4-yl)-3-(pyrrolidin-1-yl)pyrazin-2-yl)-1,4-diazepane hydrochloride]
3 | 0.16 | CN1CCCN(c2nc(-c3ccnc4[nH]ccc34)cnc2N2CCCC2)CC1 [Example 39, 4-(6-(4-Methyl-1,4-diazepan-1-yl)-5-(pyrrolidin-1-yl)pyrazin-2-yl)-1H-pyrrolo[2,3-b]pyridine dihydrochloride]
4 | 0.33 | c1cc(-c2cnc(N3CCCC3)c(N3CCCNCC3)n2)ccn1 [Example 40, 1-(6-(Pyridin-4-yl)-3-(pyrrolidin-1-yl)pyrazin-2-yl)-1,4-diazepane hydrochloride]
5 | 0.033 | c1cc2[nH]ncc2cc1-c1cnc(N2CCCC2)c(N2CCCNCC2)n1 [Example 42, 5-(6-(1,4-Diazepan-1-yl)-5-(pyrrolidin-1-yl)pyrazin-2-yl)-1H-indazole hydrochloride]
6 | 0.11 | Cc1n[nH]c2ccc(-c3cnc(N4CCCC4)c(N4CCCNCC4)n3)cc12 [Example 43, 5-(6-(1,4-Diazepan-1-yl)-5-(pyrrolidin-1-yl)pyrazin-2-yl)-3-methyl-1H-indazole hydrochloride]
7 | 0.078 | OCCN1CCN(c2nc(-c3ccncc3)cnc2N2CCCC2)CC1 [Example 44]
8 | 0.25 | c1cc(-c2cnc(N3CCCC3)c(NC3CCCNC3)n2)ccn1 (stereo not drawn) [Example 45, N-(Piperidin-3-yl)-6-(pyridin-4-yl)-3-(pyrrolidin-1-yl)pyrazin-2-amine dihydrochloride]
9 | 0.084 | c1cc(-c2cnc(N3CCCC3)c(OC3CCNCC3)n2)ccn1 [Example 46, 3-(Piperidin-4-yloxy)-5-(pyridin-4-yl)-2-(pyrrolidin-1-yl)pyrazine]
10 | 0.054 | c1cc(-c2cnc(N3CCCC3)c(OC3CCNCC3)n2)c2cc[nH]c2n1 [Example 47, 4-(6-(Piperidin-4-yloxy)-5-(pyrrolidin-1-yl)pyrazin-2-yl)-1H-pyrrolo[2,3-b]pyridine]
11 | 0.56 | CN1CCCN(c2nc(-c3ccncc3)cnc2N2CCCCC2)CC1 [Example 48, 1-Methyl-4-(3-(piperidin-1-yl)-6-(pyridin-4-yl)pyrazin-2-yl)-1,4-diazepane hydrochloride]
12 | 0.3 | c1cc(-c2cnc(N3CCCCC3)c(NC3CCCNC3)n2)ccn1 (stereo not drawn) [Example 49, 3-(Piperidin-1-yl)-N-(piperidin-3-yl)-6-(pyridin-4-yl)pyrazin-2-amine]
13 | 0.02 | CN1CCCN(c2nc(-c3ccncc3)cnc2N2CCCCCC2)CC1 [Example 50, 1-(3-(Azepan-1-yl)-6-(pyridin-4-yl)pyrazin-2-yl)-4-methyl-1,4-diazepane hydrochloride]
14 | 0.19 | c1cc(-c2cnc(N3CCCCCC3)c(NC3CCCNC3)n2)ccn1 (stereo not drawn) [Example 51, 3-(Azepan-1-yl)-N-(piperidin-3-yl)-6-(pyridin-4-yl)pyrazin-2-amine dihydrochloride]
15 | 6.3 | CN1CCCN(c2nc(-c3ccncc3)cnc2N2CCOCC2)CC1 [Example 52, 4-(3-(4-Methyl-1,4-diazepan-1-yl)-5-(pyridin-4-yl)pyrazin-2-yl)morpholine trihydrochloride]
